In brackets after ≈: the same amount, converted by molar mass.

Data set [1] can be described thus: Ex vivo human saphenous vein model, angiopeptin loaded stents. As to the method: More extensive work was conducted on angiopeptin loaded stents, to mimic the in vivo environment. The further examples use an ex vivo human saphenous vein model (as described by Armstrong, J. et al 1998. A purfused organ culture model to investigate drug release from coronary stents, Northern General Hospital, Sheffield (in press). The stents (produced as in Reference Example 1 below) were loaded using aqueous solutions of angiopeptin labeled with ^125I by the chloramine T method, into which the stent was dipped for half an hour at 37 C. The loaded stents were then allowed to air dry for one hour. Stents were in inserted into the vein, expanded by balloon catheter, washed in 10 ml culture medium for 10 s then placed in the purpose-built organ culture chamber bathed in 30 ml culture medium. The chamber was then connected to a circuit and 100 ml culture medium (HEPES-buffered RPMI 1640 culture medium (LIFE) supplemented with penicillin ([…]) streptomycin (100 units/ml) and glutamine (2 mM)) at 70 ml/min, then removed after 1 hour or 24 hours. The stent was subsequently examined to determine the proportion of angiopeptin which has eluted, whilst the vessel immediately surrounding the stent was investigated to determine the proportion of eluted drug found in the vessel. The culture medium was also analysed as was the explanted stent for radio activity.

The nature of data set [2]: In vivo porcine coronary artery model, angiopeptin loaded stents. As to the method:
Further work was conducted to investigate the ability of the angiopeptin loaded stents to deliver angiopeptin tissue in an in vivo, in a porcine coronary artery model. […] The levels of angiopeptin remaining in the arterial wall immediately surrounding the stent was determined as well as the level recovered in blood and urine.

The conditions of data set [3]: cited from earlier work.
The nature of data set [4]: Roxithromycin loading and release, pre-coated stents. In kind it is physicochemical. As to the method:
Stents coated with polymer according to Reference Example 1 (15 mm) were loaded with roxithromycin from 5 g/l and 10 g/l solutions in ethanol or in ethanol:water 50:50 mixture. The level of loading of drug onto the stent was determined by elution from the stent into ethanol. […] The average loading for the 5 g/l solution was 58 μg per stent, whilst the 10 g/l solutions lead to loadings of around 70 μg for both solvent systems.
Stents loaded from the 10 g/l ethanolic solutions were subsequently contacted with phosphate buffered saline under gentle agitation and the release rate determined. […] The test was continued up to 48 hours, after which time 5 to 10% of roxithromycin remains in the coating.

Data set [5] can be described thus: Dexamethasone phosphate and dexamethasone loading and elution, pre-coated stents. Conditions: for loading per stent: 20 C., 30 minutes.
A short description of data set [6]: Drug loading of HEMA-PC:HEMA:MMA:MBA crosslinked membrane. Conditions: HEMA-PC:HEMA:MMA:MBA copolymer swollen in aqueous drug solution, room temperature, over night. In kind it is physicochemical. From the text: The polymers including MBA were polymerised in situ to form crosslinked membranes. […] The crosslinked polymers were used to form “infinite slabs” type membranes, to simulate the coating on a stent. […] The loaded levels were established to be the following: […]

Data set [7] can be described thus: Taxol loading of cross-linked polymer discs. In kind it is physicochemical. As to the method: Polymers of the same compositions as used in example 8 are tested for taxol (paclitaxel) loading. Twenty discs were cut out of each membrane of polymer, placed on pieces of PTFE in petri dishes and dried in an oven at 60° C. for an hour. When cool the discs were placed into a solution of taxol and allowed to swell in a water bath at 37° C. for half an hour. The taxol solution was decanted off, the discs labelled and placed on the PTFE and allowed to air dry. The discs were then tested for determining total loadings.

A short description of data set [8]: Vitamin B12 loading of MBA-crosslinked HEMA-PC:LM polymers. In kind it is physicochemical. The method, then: Polymers based on HEMA-PC:LM 1:2 with varying degrees of MBA crosslinker were tested to determine the effect of crosslinker on release of vitamin B12. The polymers were also tested for their water content when swollen to equilibrium in water at 37° C. The loading levels of vitamin B12 are recorded in table 2 below.
Also recorded in table 2 are similar results for MBA crosslinked copolymers based upon 1:1 copolymers of HEMA-PC and LM.

Data set [9] in a line: Aspirin loading and release, pre-coated stents. In kind it is physicochemical. Conditions: for aspirin loaded: 15 mm stent, one hour, room temperature. From the text:
Aspirin has anti platelet activity, which may be useful delivered locally from a stent. […] The solutions were used to load 15 mm stents having coatings produced according to Reference Example 1 (interior wall coating thickness around 350 nanometers, exterior wall coating thickness around 1400 nanometers). The stents were immersed in the aspirin solutions at room temperature for a period of one hour. The stent was removed from the solution, excess solution removed by gentle dabbing with absorbent tissue. Aspirin loading levels were determined by extracting the aspirin into 3 ml ethanol.

Take `CC(C)[C@@H]1NC(=O)[C@H](CCCCN)NC(=O)[C@@H](Cc2c[nH]c3ccccc23)NC(=O)[C@H](Cc2ccc(O)cc2)NC(=O)[C@@H](NC(=O)[C@H](N)Cc2ccc3ccccc3c2)CSSC[C@@H](C(=O)N[C@H](C(N)=O)[C@@H](C)O)NC1=O` [angiopeptin]: the “share of angiopeptin eluted from stent” value is listed as 93% in data set [1] (after 1 hour) and 97% in data set [1] (after 24 hours). The “share of eluted drug in the surrounding vessel” value in [1] (after 1 hour) is given as 13.9%. The “share of eluted drug remaining in the vessel” value in data set [1] (after 24 hours) was determined as 7.4%. In addition, in [2] (1 to 28 days), the “share of detected angiopeptin located in tissue other than the heart” value is “less than 1%”. Besides, the angiopeptin in blood is 0.08 µg/mL in data set [2] (after 5 min), “around 0.01 μg/ml” in data set [2] (after 24 hours) and “No angiopeptin could be found” in data set [2] (at 7 to 28 days). Further, the angiopeptin in urine in data set [2] (after 1 hour) stood at 0.29 µg/mL; in data set [2] (after 28 days), 0.01 µg/mL. Besides, the “share of angiopeptin remaining on the stent” value in [2] (after 1 hour) was 9%; in data set [2] (after 24 hours), 4%; in data set [2] (after 7 days), 1.5%. Also, in [2] (after one hour), the “angiopeptin in blood compared with 5 min” value is given as “about the same”. Moreover, the “level of angiopeptin in tissue” value is “around 400 pg/ml” in [2] (arterial wall surrounding the stent, after 24 hours); “around 360 pg/ml” in data set [2] (at 7 days); “around 200 pg/ml” in data set [2] (at 28 days). For the same molecule, the “share of released angiopeptin localised in the left anterior descending coronary artery” value in data set [2] (at 1 hour) came out at 84%.
Consider `CC[C@H]1OC(=O)[C@H](C)[C@@H](O[C@H]2C[C@@](C)(OC)[C@@H](O)[C@H](C)O2)[C@H](C)[C@@H](O[C@@H]2O[C@H](C)C[C@H](N(C)C)[C@H]2O)[C@](C)(O)C[C@@H](C)/C(=N\OCOCCOC)[C@H](C)[C@@H](O)[C@]1(C)O` [roxithromycin, Roxithromycin], for which the “solubility in water” value in [3] is “substantially insoluble in water”. Further, the average loading in [4] (15 mm stent, 5 g/l solution) is 58 μg per stent. Further, the loading entry in data set [4] (15 mm stent, 10 g/l solutions, ethanol and ethanol:water 50:50) is on record as “around 70 μg”. For the same molecule, the “share of compound released” value in data set [4] (PBS, gentle agitation, after 24 hours, loaded from 10 g/l ethanolic solution) was “around half”.
In the case of `C[C@@H]1C[C@H]2[C@@H]3CCC4=CC(=O)C=C[C@]4(C)[C@@]3(F)[C@@H](O)C[C@]2(C)[C@@]1(O)C(=O)COP(=O)(O)O` [dexamethasone phosphate, Dexamethasone phosphate], the loading per stent worked out at 9 μg per stent in [5] (1.0 g/l in water), 14 µg in [5] (2.0 g/l in water) and 20 µg in data set [5] (5.0 g/l in water). Besides, the “time by which effectively all the drug is released” value in data set [5] (elution test) is ≤ 1 h.
For rhodamine, the “Loading (mg/g polymer)” value in data set [6] is 85 mg/g polymer.
Consider `CC(=O)O[C@H]1C(=O)[C@@]2(C)[C@H]([C@H](OC(=O)c3ccccc3)[C@]3(O)C[C@H](OC(=O)[C@H](O)[C@@H](NC(=O)c4ccccc4)c4ccccc4)C(C)=C1C3(C)C)[C@]1(OC(C)=O)CO[C@@H]1C[C@@H]2O` [taxol, paclitaxel], for which the “Total Loading (μg per disc)” value was determined as 35.2 μg per disc in data set [7] (Series 1, 1st polymer (Table 4 HEMA-PC:LM:Hpm:TMSPM 13:39:15:5)); 80 μg per disc in data set [7] (Series 1, 2nd polymer (Table 4 53:39:15:5)); 15 μg per disc in data set [7] (Series 1, 3rd polymer (Table 4 13:55:15:5)); 18.1 μg per disc in [7] (Series 1, 4th polymer (Table 4 33:55:15:5)); 51.7 μg per disc in [7] (Series 2, 1st polymer (Table 4 13:39:15:9)); 57 μg per disc in data set [7] (Series 2, 2nd polymer (Table 4 33:39:15:9)). Moreover, the “Total Loading (μg per disc)” value in [7] (Series 2, 3rd polymer (Table 4 13:55:15:9)) turned out to be 18.6 μg per disc; in data set [7] (Series 2, 4th polymer (Table 4 33:55:15:9)) it was 10 μg per disc; in [7] (Series 3, 1st polymer (Table 4 13:39:35:5)) it was 55.2 μg per disc; in [7] (Series 3, 2nd polymer (Table 4 33:39:35:5)), 11.2 μg per disc; in data set [7] (Series 3, 3rd polymer (Table 4 13:55:35:5)), 5.4 μg per disc; in [7] (Series 3, 4th polymer (Table 4 33:55:35:5)), 25.3 μg per disc. Moreover, the “Total Loading (μg per disc)” value stood at 23.8 μg per disc in data set [7] (Series 4, 1st polymer (Table 4 13:39:35:9)); 60.5 μg per disc in data set [7] (Series 4, 2nd polymer (Table 4 33:39:35:9)); 24.3 μg per disc in [7] (Series 4, 3rd polymer (Table 4 13:55:35:9)); 64 μg per disc in [7] (Series 4, 4th polymer (Table 4 33:55:35:9)).
Take vitamin B12: the “Loading (mg/g polymer)” value in [6] was determined as 40 mg/g polymer. Also, the “Vitamin B12 Load (mg/g polymer)” value in data set [8] (HEMA-PC:LM 1:1, crosslinker 0.28 mole %) stood at 26.13 mg/g polymer; in data set [8] (HEMA-PC:LM 1:1, crosslinker 0.5 mole %), 19.83 mg/g polymer; in data set [8] (HEMA-PC:LM 1:1, crosslinker 1 mole %), 11.89 mg/g polymer; in [8] (HEMA-PC:LM 1:1, crosslinker 2 mole %) it was 8.44 mg/g polymer; in data set [8] (HEMA-PC:LM 1:1, crosslinker 5 mole %), 4.94 mg/g polymer; in [8] (HEMA-PC:LM 1:2, crosslinker 0.28 mole %), 11.73 mg/g polymer. In addition, the “Vitamin B12 Load (mg/g polymer)” value is 10.68 mg/g polymer in [8] (HEMA-PC:LM 1:2, crosslinker 0.5 mole %); 11.4 mg/g polymer in [8] (HEMA-PC:LM 1:2, crosslinker 1 mole %); 4.66 mg/g polymer in data set [8] (HEMA-PC:LM 1:2, crosslinker 2 mole %); 1.96 mg/g polymer in data set [8] (HEMA-PC:LM 1:2, crosslinker 5 mole %); 0 mg/g polymer in data set [8] (HEMA-PC:LM 1:2, crosslinker 10 mole %).
On to `CC(=O)Oc1ccccc1C(=O)O` [aspirin, Aspirin], for which the “solubility in water” value in data set [3] was “only partially soluble in water”. Moreover, the aspirin loaded result in [9] (10 g/l in ethanol) is listed as “around 10 μg”; in data set [9] (40 g/l in ethanol) it was “around 40 μg”. Moreover, the “share of drug eluted” value in data set [9] (into phosphate buffered saline, after about 1 hour) is “around 90%”.
Take `C[C@@H]1C[C@H]2[C@@H]3CCC4=CC(=O)C=C[C@]4(C)[C@@]3(F)[C@@H](O)C[C@]2(C)[C@@]1(O)C(=O)CO` [dexamethasone, Dexamethasone]: the “solubility in water” value in data set [3] is on record as “less water soluble than dexamethasone phosphate”.
In the case of `CO[C@H]1C[C@@H]2CC[C@@H](C)[C@@](O)(O2)C(=O)C(=O)N2CCCC[C@H]2C(=O)O[C@H]([C@H](C)C[C@@H]2CC[C@@H](O)[C@H](OC)C2)CC(=O)[C@H](C)/C=C(\C)[C@@H](O)[C@@H](OC)C(=O)[C@H](C)C[C@H](C)/C=C/C=C/C=C/1C` [Rapamycin], the solubility in water in data set [3] is 5 µg/mL (≈ 5.47 µM).

Source of the values: patent publication US7754272B2, “Local drug delivery” (Biocompatibles IK Limited, priority 1999, dated 2010).
